Marks after values point to notes of the source that are not given here.
Assays:
[1] = Fluorescence property measurements (absorption/emission spectra); format: physicochemical; set-up: Stokes Shift: unit not given here
Description: The λabs and λem, of the target compounds were measured in aqueous solution (phosphate-buffered saline solution, PBS) at the concentration of 10^−5 M (Table 1).
Fluorescence spectra of all target compounds were determined in PBS and EtOH solutions (Table 1) with a Tecan Infinite 200 Microplate Reader. In all experiments, the excitation and the emission bandpass were set at λ = 5 nm. The emission spectra were obtained from λ = 280 to 850 nm, with excitation set at the appropriate excitation wavelength. Absorption spectra were recorded with a Shimadzu UV-1800 spectrophotometer.

COX-2 = target: T1, COX-2 (Homo sapiens, UniProt P35354); experiment: COX-2 inhibition, COX (ovine/human) inhibitor screening assay kit; format: biochemical; conditions: for COX-2 inhibitory activity (in words): up to 50 µM final concentration
T1 construct: purchased Cayman Chemicals (bought through Sigma-Aldrich) 560131
T1 sequence (P35354 18-604): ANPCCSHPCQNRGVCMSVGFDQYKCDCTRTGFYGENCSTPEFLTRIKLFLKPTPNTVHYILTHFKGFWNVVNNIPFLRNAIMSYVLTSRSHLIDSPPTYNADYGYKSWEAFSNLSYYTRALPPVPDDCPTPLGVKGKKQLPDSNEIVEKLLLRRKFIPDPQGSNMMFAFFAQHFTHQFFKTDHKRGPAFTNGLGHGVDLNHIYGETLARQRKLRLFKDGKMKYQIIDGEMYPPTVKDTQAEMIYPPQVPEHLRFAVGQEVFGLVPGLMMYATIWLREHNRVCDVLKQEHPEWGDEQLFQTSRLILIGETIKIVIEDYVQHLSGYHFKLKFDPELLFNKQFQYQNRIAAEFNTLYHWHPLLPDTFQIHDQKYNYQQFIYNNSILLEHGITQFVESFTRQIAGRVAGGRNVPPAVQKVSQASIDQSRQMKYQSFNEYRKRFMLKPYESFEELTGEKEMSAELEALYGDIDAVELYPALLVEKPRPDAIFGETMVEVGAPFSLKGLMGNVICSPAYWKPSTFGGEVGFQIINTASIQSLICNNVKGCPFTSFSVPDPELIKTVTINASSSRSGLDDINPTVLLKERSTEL
Description: Cell culture reagents were purchased from Euroclone (Milan, Italy). COX (ovine/human) inhibitor screening assay kit (Catalog No. 560131, Cayman Chemicals, Ann Arbor, MI, USA) was purchased from Sigma-Aldrich, Burlington, MA, USA. […] The other reagents were purchased from Sigma-Aldrich, Burlington, MA, USA.
The COX-1/2 inhibition screening experiments were carried out according to the manufacturer’s instructions. The plate was incubated for 60 min at r.t. under shaking and read with the Tecan Infinite 200 Microplate Reader at λ = 405 nm.
The graph between percent inhibition of the enzyme and corresponding concentration of the compound provided IC50 values for the probe compounds.

SKOV-3 xenograft tumors = experiment: NIR fluorescence imaging / biodistribution in SKOV-3 s.c. xenograft models; format: in vivo, NSG mice; conditions: SKOV-3 s.c. mice, i.v.
Description: In addition to OVCAR-3, the COX-1 low expressing SKOV-3 cell line was subcutaneously xenografted to evaluate the specificity of RR11 and 23 (MSA14). RR11 exerted high tumor fluorescence already two hours after injection (n = 2) with similar organ biodistribution as already observed in OVCAR-3 xenografts (TBR = 1.28; Figure 4A and Figure 5A). 23 (MSA14) was evaluated at 6 and 24 h, with a dose of 100 µM and 500 µM in n = 4 SKOV-3 models. […] However, the tumor fluorescence intensity was not sufficient to discriminate between healthy organs and malignant tissue at low exposure times of 100 ms “ex vivo”. The fluorescence signal in COX-1 low-expressing SKOV-3 tumors might be an indication of non-specific compound accumulation.
Female NOD-scid IL2rγ^null (NSG) mice, aged 6 to 25 weeks were maintained under defined floral conditions and no more than five mice were housed in individually ventilated (HEPA-filtered air) cages, kept on a 12 h dark/night schedule at a constant temperature of 21 °C and at 50% relative humidity at the University of Bergen’s animal facility. Observations of body weight and general condition including activity levels, appearance, and food intake were monitored twice weekly, and humane endpoints were defined with the use of score sheets. When indicated, animals were euthanized according to institutional guidelines.
Single cell suspensions of SKOV-3 and OVCAR-3 ovarian cancer cells, cultured as previously described, were obtained by washing the adherent cells with PBS and detached with trypsin-EDTA for 3–5 min at 37 °C. For subcutaneous injection (s.c.), cells were resuspended in an ice-cold mixture of 100 µL per insulin syringe (3/10-cc with 30 g needle) comprising 50 μL saline, 25 µL medium, and 25 µL Matrigel (cat# 08-774-391, Corning Inc®, Fisher Scientific, Waltham, MA, USA). SKOV-3 and OVCAR-3 subcutaneous xenograft models were established through lateral flank injection of 5 × 10^6 cells and 1 × 10^6 cells, respectively, under 3.5% sevoflurane inhalation anesthesia (cat# 29960 SevoFlo, Zoetis, Louvain-la-Neuve, Belgium). Mice were imaged with RR11 and MSA14 when the caliper measurements reached 200–500 mm^3 (Volume = (height × width × length × π)/6).
“In vivo” and “ex vivo” FLI was performed with both COX-1 targeting compounds, the reference compound RR11 and the novel 23 (MSA14), at different concentrations and time points. Prior to FLI, mice were shaved to avoid autofluorescence background signal. The desired concentration (100 µM, 500 µM) of the compound stock solutions in DMSO were freshly diluted with PBS, before 100 µL was injected intravenously into the tail vein. FLI was performed with the IVIS Spectrum In Vivo Imaging System with a λabs 640 ± 15 nm bandpass filter (BP), λem 680 ± 10 nm BP for RR11, and λabs 745 ± 15 nm BP, λem 820 ± 10 nm BP for 23 (MSA14), 0.5–24 h after small molecule administration. All scans were acquired with epi-illumination and auto exposure. Regions of interest (ROI) were manually gated around the tumor, organs, or the whole ventral and lateral positioned mouse and calculated using the Living image software (Perkin Elmer). The ROI of the muscle at the flank region was used to calculate the tumor-to-background (TBR) ratios.

[2] = ethanol (10^−4 M), two bands, listed as 23

| SMILES | Stokes Shift ([1]; ethanol (10^−5 M)) | λabs ([1]; ethanol (10^−5 M)) | λem ([1]; ethanol (10^−5 M)) | IC50 (COX-2) [nM] | COX-2 % inhib. (COX-2; at 50 µM compound final concentration) [%] | tumor-to-background ratio (TBR) (SKOV-3 xenograft tumors; two hours after injection) | λabs [1, 2] [nm] | λem [1, 2] [nm] | COX-2 inhibitory activity (in words) (COX-2) | COX-2 inhibitory activity (in words) (COX-2; listed as 23) | average TBR (SKOV-3 xenograft tumors; 6 h, 100 µM) | average TBR (SKOV-3 xenograft tumors; 6 h, 500 µM) | average TBR (SKOV-3 xenograft tumors; 24 h, 100 µM) | average TBR (SKOV-3 xenograft tumors; 24 h, 500 µM) |
| --- | --- | --- | --- | --- | --- | --- | --- | --- | --- | --- | --- | --- | --- | --- |
| COc1ccc(-c2noc(CC(=O)NCCCCNc3cc4[o+]c5cc(N(C)C)ccc5nc4c4ccccc34)c2-c2ccc(OC)cc2)cc1.[Cl-] [RR11, N-[4-(9-dimethylimino-9H-benzo[a]phenoxazin-5-ylamino)butyl]-2-(3,4-bis(4-methoxyphenyl)isoxazol-5-yl)acetamide chloride, reference compound] | 62 | 610 ^b nm | 672 ^b nm | 2400 | 64 | 1.28 | – | – | – | – | – | – | – | – |
| CCN1/C(=C/C=C/C=C/C=C/C2=[N+](CCCCCC(=O)NCCCCNC(=O)Cc3onc(-c4ccc(OC)cc4)c3-c3ccc(OC)cc3)c3ccc4ccccc4c3C2(C)C)C(C)(C)c2c1ccc1ccccc21 [23 (MSA14), 3-(6-(4-(2-(3,4-Bis(4-methoxyphenyl)isoxazole-5-yl)acetamido)butyl)amino-6-oxohexyl)-2-[7-(1,3-dihydro-1,1-dimethyl-3-ethyl-2H-benz[e]indolin-2-yl-idene)-1,3,5-heptatrienyl]-1,1-dimethyl-3-(6-carboxilato-hexyl)-1H-benz[e]indolium chloride] | – | – | – | > 50000 | – | – | 770 | 822 | did not inhibit | almost inactive | 1.23 | 1.49 | 1.96 | 1.5 |

Source: PMC9230671, “Fluorochrome Selection for Imaging Intraoperative Ovarian Cancer Probes” (Pharmaceuticals, 2022)
